Structures are written as SMILES.

The term inhibition denotes the relative decrease from the control value, in per cent. For orientation: Ki means a measure of affinity in units of concentration, obtained from inhibition or displacement.

T2 sequence (P35968 with tags, fused parts or gaps DEL940-989/E990V limits assumed): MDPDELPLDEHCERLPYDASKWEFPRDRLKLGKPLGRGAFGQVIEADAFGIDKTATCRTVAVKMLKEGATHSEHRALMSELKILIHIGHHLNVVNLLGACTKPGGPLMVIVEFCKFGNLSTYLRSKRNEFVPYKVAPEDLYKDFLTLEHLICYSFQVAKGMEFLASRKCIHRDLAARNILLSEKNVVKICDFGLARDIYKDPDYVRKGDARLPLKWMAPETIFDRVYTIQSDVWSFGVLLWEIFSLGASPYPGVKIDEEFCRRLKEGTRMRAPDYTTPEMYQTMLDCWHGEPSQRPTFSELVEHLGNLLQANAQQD
T4 sequence (P11802 whole entry): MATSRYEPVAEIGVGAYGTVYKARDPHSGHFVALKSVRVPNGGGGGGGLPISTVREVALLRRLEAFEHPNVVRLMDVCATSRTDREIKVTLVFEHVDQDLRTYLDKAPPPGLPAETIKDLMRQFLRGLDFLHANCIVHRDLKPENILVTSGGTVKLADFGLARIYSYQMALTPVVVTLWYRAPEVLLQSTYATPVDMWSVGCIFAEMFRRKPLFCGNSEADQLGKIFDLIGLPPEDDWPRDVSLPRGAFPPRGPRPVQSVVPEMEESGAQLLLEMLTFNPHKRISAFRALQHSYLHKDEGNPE
T4 sequence (P30281 whole entry partner): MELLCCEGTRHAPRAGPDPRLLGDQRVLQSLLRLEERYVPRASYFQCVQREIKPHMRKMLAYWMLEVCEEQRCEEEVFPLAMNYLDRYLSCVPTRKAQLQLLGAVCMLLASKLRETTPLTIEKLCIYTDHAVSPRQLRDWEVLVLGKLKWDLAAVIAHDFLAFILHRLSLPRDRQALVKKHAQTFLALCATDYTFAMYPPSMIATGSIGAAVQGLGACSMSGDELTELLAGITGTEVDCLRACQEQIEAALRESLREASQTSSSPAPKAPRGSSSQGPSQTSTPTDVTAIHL
T1 sequence (P35968 with tags, fused parts or gaps DEL940-989/E990V limits assumed): as the sequence (P35968 with tags, fused parts or gaps DEL940-989/E990V limits assumed) above

The first test has as its target T1, phosphorylated VEGF-R2Δ50 (FLVK-P) (Homo sapiens, UniProt P35968, DEL940-989/E990V).
T1 construct: VEGF-R2Δ50 contains residues 806-939 and 990-1171; made in house; host or cells: baculovirus/insect cells
Put plainly: VEGF-R2 coupled spectrophotometric (FLVK-P) assay. It counts as biochemical. The settings on record: read-out: VEGF % inhibition at 20 μM, 20 μM; combinatorial library compounds. The essentials: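 Baculovirus-expressed human VEGF-R2Δ50 (residues 806-939/990-1171, E990V) was autophosphorylated with 3 mM ATP, 40 mM MgCl2 for 2 h at 4° C. ADP formation was coupled via PK/LDH to NADH oxidation, read at 340 nm, with 5.1 mM poly(E4Y1), 1 mM ATP, 25 mM MgCl2, Hepes pH 7.5. Ki came from activity across compound concentrations.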
`COc1ccc(-c2csc(-c3sc(Nc4ccc(C(C)C)cc4)nc3N)n2)c(OC)c1`: the inhibition at 20 µM was -10%.

The next test concerns the target T2, unphosphorylated VEGF-R2Δ50 (FLVK) (Homo sapiens, UniProt P35968, DEL940-989/E990V).
T2 construct: VEGF-R2Δ50 contains residues 806-939 and 990-1171; made in house; host or cells: baculovirus/insect cells
As to the kind of experiment: VEGF-R2 coupled spectrophotometric assay, unphosphorylated enzyme (FLVK). It counts as biochemical. As to conditions: Table 3; at 50 nM. The text has this:
VEGF-R2 Construct for Assay: This construct determines the ability of a test compound to inhibit tyrosine kinase activity. A construct (VEGF-R2Δ50) of the cytosolic domain of human vascular endothelial growth factor receptor 2 (VEGF-R2) lacking the 50 central residues of the 68 residues of the kinase insert domain was expressed in a baculovirus/insect cell system. Of the 1356 residues of full-length VEGF-R2, VEGF-R2Δ50 contains residues 806-939 and 990-1171, and also one point mutation (E990V) within the kinase insert domain relative to wild-type VEGF-R2. Autophosphorylation of the purified construct was performed by incubation of the enzyme at a concentration of 4 μM in the presence of 3 mM ATP and 40 mM MgCl2 in 100 mM Hepes, pH 7.5, containing 5% glycerol and 5 mM DTT, at 4° C. for 2 h. […] See Parast et al., Biochemistry, 37, 16788-16801 (1998).
The production of ADP from ATP that accompanies phosphoryl transfer was coupled to oxidation of NADH using phosphoenolpyruvate (PEP) and a system having pyruvate kinase (PK) and lactic dehydrogenase (LDH). The oxidation of NADH was monitored by following the decrease of absorbance at 340 nm (e340=6.22 cm^−1 mM^−1) using a Beckman DU 650 spectrophotometer. Assay conditions for phosphorylated VEGF-R2Δ50 (indicated as FLVK-P in the tables below) were the following: 1 mM PEP; 250 μM NADH; 50 units of LDH/mL; 20 units of PK/mL; 5 mM DTT; 5.1 mM poly(E4Y1); 1 mM ATP; and 25 mM MgCl2 in 200 mM Hepes, pH 7.5. Assay conditions for unphosphorylated VEGF-R2Δ50 (indicated as FLVK in the tables) were the following: 1 mM PEP; 250 μM NADH; 50 units of LDH/mL; 20 units of PK/mL; 5 mM DTT; 20 mM poly(E4Y1); 3 mM ATP; and 60 mM MgCl2 and 2 mM MnCl2 in 200 mM Hepes, pH 7.5. Assays were initiated with 5 to 40 nM of enzyme. Ki values were determined by measuring enzyme activity in the presence of varying concentrations of test compounds. The data were analyzed using Enzyme Kinetic and Kaleidagraph software.
Take `COc1cc(Nc2nc(N)c(-c3nc(-c4cccc(C(=O)O)c4)no3)s2)cc(OC)c1OC` [B(43)]: the inhibition at 0.05 µM was 11%.
On to `COc1cccc(C(=O)Nc2cc(-c3noc(-c4sc(NC(C)C)nc4N)n3)c(F)cc2F)c1` [B(19), N-{5-[5-(4-Amino-2-isopropylamino-thiazol-5-yl)-[1,2,4]oxadiazol-3-yl]-2,4-difluoro-phenyl}-3-methoxy-benzamide], for which the inhibition at 0.05 µM was 36%.
On the same count and under the same terms, under `COc1cccc(C(=O)Nc2ccc(C)c(-c3noc(-c4sc(Nc5ccc(N(C)C)cc5)nc4N)n3)c2)c1` [B(7), 3-[3-[(3-methoxybenzoyl)amino]-6-methyl-phenyl]-5-[2-[4-(N,N-dimethylaminophenyl)amino]-4-amino-5-thiazolyl]-1,2,4-oxadiazole] stands 61%; under `COC(=O)c1cccc(-c2noc(-c3sc(Nc4cc(OC)c(OC)c(OC)c4)nc3N)n2)c1` [B(42)], 12%.
As for `COc1cccc(C(=O)Nc2cc(-c3csc(-c4sc(NC(=O)NC[C@H]5CCCO5)nc4N)n3)c(F)cc2F)c1` [O(24), N-[5-(4′-Amino-2′-{3-[(R)-1-(tetrahydro-furan-2-yl)methyl]-ureido}-[2,5′]bithiazolyl-4-yl)-2,4-difluoro-phenyl]-3-methoxy-benzamide], the inhibition at 0.05 µM is 22%.
As to `COc1cc(Nc2nc(N)c(-c3nc(-c4cc(N)ccc4F)no3)s2)cc(OC)c1OC` [C(4), 3-[3-amino-6-fluorophenyl]-5-[2-[(3,4,5-trimethoxyphenyl)amino]-4-amino-5-thiazolyl]-1,2,4-oxadiazole], the inhibition at 0.05 µM turned out to be 3%.
Still for that read-out and setting: under `COc1cccc(C(=O)Nc2cc(-c3csc(-c4sc(NC(=O)NCC5CCCCC5)nc4N)n3)c(F)cc2F)c1` [O(25), N-{5-[4′-Amino-2′-(3-cyclohexylmethyl-ureido)-[2,5′]bithiazolyl-4-yl]-2,4-difluoro-phenyl}-3-methoxy-benzamide] stands 28%; under `COc1cc(F)c(-c2noc(-c3sc(Nc4cc(OC)c(OC)c(OC)c4)nc3N)n2)cc1NC(=O)OC(C)(C)C` [B(41)], 0%.

Staying with this test, now noted: Table 3; some entries 'Slow binder'.
For the molecule `Cc1ccc(NC(=O)C(O)CC(C)C)cc1-c1noc(-c2sc(Nc3cccc(CN4CCCC4)c3)nc2N)n1` (racemic) [B(11), (R,S)-3-[3-(2-hydroxy-4-methylpentanoyl)amino]-6-methylphenyl]-5-[2-(3-methylpyrrolidinephenyl)amino]-4-amino-5-thiazolyl]-1,2,4 oxadiazole], the Ki turned out to be 0.7 nM.
On the same count and under the same terms, under `CC[C@@H](CO)NC(=O)Nc1nc(N)c(-c2nc(-c3cc(NC(=O)c4cccc(OC)c4)c(F)cc3F)cs2)s1` [O(22), N-(5-{4′-Amino-2′-[3-((S)-1-hydroxymethyl-propyl)-ureido]-[2,5′]bithiazolyl-4-yl}-2,4-difluoro-phenyl)-3-methoxy-benzamide] stands 1.5 nM; under `COc1cc(Nc2nc(N)c(-c3nc(-c4cc(NC(=O)OC(C)(C)C)ccc4F)no3)s2)cc(OC)c1OC` [B(5), 3-(3-(tert-butyloxycarboxyamino)-6-fluoro-phenyl)-5-[2-[(3,4,5-trimethoxyphenyl)amino]-4-amino-5-thiazolyl]-1,2,4-oxadiazole], 2.3 nM; under `CCn1nc(C)cc1C(=O)Nc1ccc(C)c(-c2noc(-c3sc(Nc4ccc(CN5CCCC5)cc4)nc3N)n2)c1` [B(10)], 0.13 nM.
In turn, `COc1cccc(C(=O)Nc2cc(-c3noc(-c4sc(NC(=O)NCCN5CCOCC5)nc4N)n3)c(F)cc2F)c1` [O(1), N-[5-(5-{4-Amino-2-[3-(2-morpholin-4-yl-ethyl)-ureido]-thiazol-5-yl}-[1,2,4]oxadiazol-3-yl)-2,4-difluoro-phenyl]-3-methoxy-benzamide] gave a Ki of 0.28 nM.
Same read-out and setting: under `COc1cccc(C(=O)Nc2cc(-c3noc(-c4sc(NC(=O)NCc5ccccn5)nc4N)n3)c(F)cc2F)c1` [O(8), N-(5-{5-[4-Amino-2-(3-pyridin-2-ylmethyl-ureido)-thiazol-5-yl]-[1,2,4]oxadiazol-3-yl}-2,4-difluoro-phenyl)-3-methoxy-benzamide] stands 0.21 nM; under `CCn1nc(C)cc1C(=O)Nc1ccc(C)c(-c2noc(-c3sc(Nc4ccccc4)nc3N)n2)c1` [B(26)], 2.8 nM.
On to `COc1ccc(NC(=O)OC(C)(C)C)cc1-c1noc(-c2sc(Nc3cc(OC)c(OC)c(OC)c3)nc2N)n1` [B(25)], for which the Ki amounted to 29 nM.
Same read-out and setting: then `COc1cccc(C(=O)Nc2cc(-c3noc(-c4sc(NC(=O)NCC5CCCO5)nc4N)n3)c(F)cc2F)c1` (centres unmarked) [O(5), N-[5-(5-{4-Amino-2-[3-(tetrahydro-furan-2-ylmethyl)-ureido]-thiazol-5-yl}-[1,2,4]oxadiazol-3-yl)-2,4-difluoro-phenyl]-3-methoxy-benzamide], with 0.22 nM; and `COc1cccc(C(=O)Nc2cc(-c3csc(-c4sc(NC(=O)NCCN5CCOCC5)nc4N)n3)c(F)cc2F)c1` [O(26), N-(5-{4′-Amino-2′-[3-(2-morpholin-4-yl-ethyl)-ureido]-[2,5′]bithiazolyl-4-yl}-2,4-difluoro-phenyl)-3-methoxy-benzamide], with 1.4 nM.
Same read-out and setting: then `COc1cc(Nc2nc(N)c(-c3nc(-c4cccc(NC(=O)c5cccc(C(N)=O)c5)c4)no3)s2)cc(OC)c1OC` [D(71)], with 4.1 nM; and `CCn1nc(C)cc1C(=O)Nc1ccc(C)c(-c2noc(-c3sc(Nc4ccc(N5CCN(C)CC5)nc4)nc3N)n2)c1` [B(27)], with 0.3 nM.
The same measure, in the same setting: under `COc1cccc(C(=O)Nc2cc(-c3noc(-c4sc(NC(=O)NCCOCCO)nc4N)n3)c(F)cc2F)c1` [O(6), N-{5-[5-(4-Amino-2-{3-[2-(2-hydroxy-ethoxy)-ethyl]-ureido}-thiazol-5-yl)-[1,2,4]oxadiazol-3-yl]-2,4-difluoro-phenyl}-3-methoxy-benzamide] stands 0.15 nM; under `Cc1ccc(NC(=O)OC(C)(C)C)cc1-c1noc(-c2sc(Nc3ccc4nc[nH]c4c3)nc2N)n1` [B(24)], 2.1 nM.

For the next test, the target named is T3, FL-CHK1 (Homo sapiens, UniProt O14757).
T3 construct: C-terminally His-tagged full-length human CHK1 (FL-CHK1); 6xHis (C); made in house; host or cells: baculovirus/insect cells
T3 sequence (O14757 1-476): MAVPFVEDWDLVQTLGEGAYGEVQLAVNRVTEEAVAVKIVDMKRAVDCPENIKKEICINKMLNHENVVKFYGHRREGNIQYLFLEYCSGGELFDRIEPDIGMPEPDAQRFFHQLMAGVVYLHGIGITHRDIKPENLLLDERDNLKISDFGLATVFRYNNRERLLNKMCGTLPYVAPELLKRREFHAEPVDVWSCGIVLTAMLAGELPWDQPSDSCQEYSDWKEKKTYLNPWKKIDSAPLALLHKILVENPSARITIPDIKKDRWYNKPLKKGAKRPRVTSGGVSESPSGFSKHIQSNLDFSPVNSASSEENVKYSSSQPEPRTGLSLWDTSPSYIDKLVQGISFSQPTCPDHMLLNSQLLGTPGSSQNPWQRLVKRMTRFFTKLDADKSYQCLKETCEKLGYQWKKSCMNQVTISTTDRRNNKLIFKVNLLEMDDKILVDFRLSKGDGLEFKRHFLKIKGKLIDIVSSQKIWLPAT
Put plainly: CHK1 assay. Type of test: biochemical. As to conditions: 20 μM; combinatorial library compounds. The gist of the method: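 Full-length human CHK1 with C-terminal 6×His tag, made in baculovirus/insect cells, 10 nM, phosphorylating 0.125 mM Syntide-2 with 0.15 mM ATP in 50 mM Tris pH 7.5, 25 mM MgCl2, 400 mM NaCl. PK/LDH-coupled NADH oxidation read at 340 nm. Ki from initial rates over varied compound concentrations.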
Regarding `COc1ccc(-c2csc(-c3sc(Nc4ccc(C(C)C)cc4)nc3N)n2)c(OC)c1`, the inhibition at 20 µM stood at 1.8%.

The target in a further test is CDK2/Cyclin A complex (Homo sapiens, UniProt P24941). Put plainly: CDK2/Cyclin A assay. Type of test: biochemical. The settings on record: 1.0 μM; combinatorial library compounds. The essentials: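 Radiometric assay: 150 nM CDK2/cyclin A (insect-cell CDK2, truncated cyclin A) phosphorylates His-tagged Rb fragment (residues 386-928) with 25 μM ATP plus [32P]ATP, pH 7.4 HEPES, 2% DMSO, 30 °C for 20 min. Filter-captured product counted by phosphorimager; apparent Ki from competitive or tight-binding inhibition fits.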
`COc1ccc(-c2csc(-c3sc(Nc4ccc(C(C)C)cc4)nc3N)n2)c(OC)c1`: the inhibition at 1 µM was -22.6%.

A further test has as its target T4, CDK4/Cyclin D3 complex (Homo sapiens, UniProt P11802).
T4 construct: made in house; host or cells: insect cells co-infected with baculovirus vectors
As to the kind of experiment: CDK4/Cyclin D assay. It counts as biochemical. As to conditions: 1.0 μM; combinatorial library compounds. The essentials:
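Insect-cell-expressed CDK4/cyclin D3 (50 nM) phosphorylating His-tagged Rb fragment (residues 386-928) with 25 μM [^32P]ATP in HEPES pH 7.4, MgCl2, 2% DMSO; 20 min at 30 °C, EDTA stop. Filter-captured 32P by phosphorimager; apparent Ki from competitive or tight-binding inhibition fits.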
As to `COc1ccc(-c2csc(-c3sc(Nc4ccc(C(C)C)cc4)nc3N)n2)c(OC)c1`, the inhibition at 1 µM turned out to be 38.2%.
